# Data reported in patent US20140303092A1 (CHIMERIX, INC., priority 2011, published 2014).
# Experiment: Study HDP-CDV-201: safety and tolerability (adverse events, laboratory abnormalities, discontinuations)
# Format: in vivo, human (adult allogeneic HSCT recipients)
# Experimental: Clinical Studies of HDP-CDV were performed and described in detail in the following Examples. For example, HDP-CDV-201 is a placebo-controlled, dose-escalating trial in HSCT CMV (R+) recipients, evaluating the ability of HDP-CDV to prevent or control CMV infection was carried out. Five cohorts were established in which participants or subjects received either placebo or the HDP-CDV orally, in doses ranging from 40 mg weekly (QW) to 200 mg twice weekly (BIW). Subjects who were post-HSCT were enrolled at the time of engraftment and randomized to HDP-CDV or placebo (3 to 1 ratio) and received blinded therapy until approximately 100 day post-transplantation. HDP-CDV doses were 40 mg QW, 100 mg QW, 200 mg QW, 200 mg BIW and 100 mg BIW. Escalation to the next dose was decided by the data monitoring committee after review of the safety data from the previous Cohort. Subjects who developed CMV disease or CMV infection requiring pre-emptive therapy with local standard of care were discontinued from blinded therapy and followed for 4 weeks. Subjects who completed treatment with blinded therapy were followed for 8 weeks post-therapy.
# Data from Study HDP-CDV-201 also provided characterization of the safety and tolerability profile of HDP-CDV when administered for the prevention or control of CMV infection in high risk (R^+) post-HSCT adult subjects.
# The Safety population (SAFETY) included all randomized subjects who took at least one dose of study treatment. This population was used to summarize safety outcomes based on the treatment actually received, in cases where a subject was treated contrary to the randomization schedule.
# The safety and tolerability profile of HDP-CDV, including subject demographics and Baseline characteristics; the AE profile; and laboratory abnormalities of interest were analyzed in the cohorts followed in this investigation.
# Subjects completing the treatment period received a full course of study medication; those completing the entire study attended visits through 8 weeks of follow up. Subjects who discontinued treatment may have done so for protocol specified reasons (e.g. development of clinically significant CMV infection requiring preemptive treatment with excluded anti-CMV medications) or for other reasons (e.g., withdrawal, adverse events, loss to follow-up). The disposition of subjects in Study HDP-CDV-201 during the double-blind, placebo-controlled treatment period (through Week 11) is listed by dosing Cohort in TABLE 23.
# Adverse events were examined by severity to ensure that all safety signals were identified in this study population. Because of the frequency of events in HSCT recipients, particular attention was given to evaluation of Grade 3 […], 4 (severe), and 5 (fatal) adverse events.
# Only those preferred terms for which at least one Grade 3 or higher event was experienced in any treatment group are listed. Cytomegalovirus-related AEs are excluded from this analysis.
# HDP-CDV is a lipid conjugate of CDV. Because CDV is known to have adverse effects on renal function and bone marrow, decreased GFR and persistent neutropenia were identified as AEs of special interest. Key renal and hematological (TABLE 30) laboratory parameters were measured and listed below by Study HDP-CDV-201 treatment groups. TABLE 30 includes abnormal levels of serum creatinine, neutrophils, platelets, WBCs, and hemoglobin and includes data at Screening and during the treatment period.
# A common metric for unit based dosing of medications is by weight (mg/kg). When the distribution of weights was examined for all subjects participating in the study, the median was 78 kg and the lower 25th percentile weight was approximately 65 kg, which translates to a cut-off of ˜3 mg/kg for a 200 mg total weekly dose. Based upon this approach, a cut-off of 3 mg/kg was used to assess the frequency of diarrhea and associated GI AEs reported for the subjects in Cohorts 3 or 4a (TABLE 40).
structure (smiles),measurement,setting,value
CCCCCCCCCCCCCCCCOCCCOP(=O)(O)COC(CO)Cn1ccc(N)nc1=O (stereo not drawn) [HDP-CDV],"Grade of hepatobiliary AE acute liver injury, subject 3025",Cohort 3,1
same,"Grade of hepatobiliary AE gallbladder sludge, subject 3044",Cohort 3,2
same,"Grade of hepatobiliary AE hyperbilirubenemia, subject 3030",Cohort 3,2
same,"Grade of hepatobiliary AE hyperbilirubinemia, subject 3009",Cohort 3,1
same,"Grade of hepatobiliary AE hyperbilirubinemia, subject 3044",Cohort 3,4
same,"Grade of hepatobiliary AE jaundiced, subject 3030",Cohort 3,2
same,"Outcome of hepatobiliary AE acute liver injury, subject 3007",Cohort 3,not recovered/not
same,"Outcome of hepatobiliary AE acute liver injury, subject 3025",Cohort 3,recovered/resolved
same,"Outcome of hepatobiliary AE gallbladder sludge, subject 3044",Cohort 3,not recovered/not
same,"Outcome of hepatobiliary AE hyperbilirubenemia, subject 3030",Cohort 3,not recovered/not
same,"Outcome of hepatobiliary AE hyperbilirubinemia, subject 3009",Cohort 3,recovered/resolved
same,"Outcome of hepatobiliary AE hyperbilirubinemia, subject 3044",Cohort 3,not recovered/not
same,"Outcome of hepatobiliary AE jaundiced, subject 3030",Cohort 3,not recovered/not
same,"Relationship of hepatobiliary AE acute liver injury, subject 3007",Cohort 3,not related
same,"Relationship of hepatobiliary AE acute liver injury, subject 3025",Cohort 3,not related
same,"Relationship of hepatobiliary AE gallbladder sludge, subject 3044",Cohort 3,not related
same,"Relationship of hepatobiliary AE hyperbilirubenemia, subject 3030",Cohort 3,not related
same,"Relationship of hepatobiliary AE hyperbilirubinemia, subject 3009",Cohort 3,not related
same,"Relationship of hepatobiliary AE hyperbilirubinemia, subject 3044",Cohort 3,not related
same,"Relationship of hepatobiliary AE jaundiced, subject 3030",Cohort 3,not related
same,subjects discontinued due to neutropenia,Cohort 3,2 subject(s)
same,"ALT (Screening) >3 × ULN-5 × ULN, subjects","Cohort 3, 200 mg QW",0
same,"ALT (Screening) >5 × ULN-10 × ULN, subjects","Cohort 3, 200 mg QW",0
same,"ALT (Screening) >10 × ULN-20 × ULN, subjects","Cohort 3, 200 mg QW",0
same,"ALT (Screening) >20 × ULN, subjects","Cohort 3, 200 mg QW",0
same,"ALT (any time during therapy) >3 × ULN-5 × ULN, subjects","Cohort 3, 200 mg QW",4 (10.5%)
same,"ALT (any time during therapy) >5 × ULN-10 × ULN, subjects","Cohort 3, 200 mg QW",5 (13.2%)
same,"ALT (any time during therapy) >10 × ULN-20 × ULN, subjects","Cohort 3, 200 mg QW",0
same,"ALT (any time during therapy) >20 × ULN, subjects","Cohort 3, 200 mg QW",1 (2.6%)
same,"AST (Screening) >3 × ULN-5 × ULN, subjects","Cohort 3, 200 mg QW",0
same,"AST (Screening) >5 × ULN-10 × ULN, subjects","Cohort 3, 200 mg QW",0
same,"AST (Screening) >10 × ULN-20 × ULN, subjects","Cohort 3, 200 mg QW",0
same,"AST (Screening) >20 × ULN, subjects","Cohort 3, 200 mg QW",0
same,"AST (any time during therapy) >3 × ULN-5 × ULN, subjects","Cohort 3, 200 mg QW",5 (13.2%)
same,"AST (any time during therapy) >5 × ULN-10 × ULN, subjects","Cohort 3, 200 mg QW",1 (2.6%)
same,"AST (any time during therapy) >10 × ULN-20 × ULN, subjects","Cohort 3, 200 mg QW",0
same,"AST (any time during therapy) >20 × ULN, subjects","Cohort 3, 200 mg QW",0
same,"Alkaline Phosphatase (Screening) >2.5-5.0 × ULN, subjects","Cohort 3, 200 mg QW",0
same,"Alkaline Phosphatase (Screening) >5.0-20.0 × ULN, subjects","Cohort 3, 200 mg QW",0
same,"Alkaline Phosphatase (Screening) >20.0 × ULN, subjects","Cohort 3, 200 mg QW",0
same,"Alkaline Phosphatase (Screening) >ULN-[…] ULN, subjects","Cohort 3, 200 mg QW",5 (13.5%)
same,"Alkaline Phosphatase (any time during therapy) >2.5-5.0 × ULN, subjects","Cohort 3, 200 mg QW",0
same,"Alkaline Phosphatase (any time during therapy) >5.0-20.0 × ULN, subjects","Cohort 3, 200 mg QW",0
same,"Alkaline Phosphatase (any time during therapy) >20.0 × ULN, subjects","Cohort 3, 200 mg QW",0
same,"Alkaline Phosphatase (any time during therapy) >ULN-[…] ULN, subjects","Cohort 3, 200 mg QW",14 (36.8%)
same,"GI AE Leading to Study Drug Discontinuation: Abdominal pain, subjects","Cohort 3, 200 mg QW",0
same,"GI AE Leading to Study Drug Discontinuation: Diarrhoea, subjects","Cohort 3, 200 mg QW",1 (2.6%)
same,"GI AE Leading to Study Drug Discontinuation: Dyspepsia, subjects","Cohort 3, 200 mg QW",2 (5.1%)
same,"GI AE Leading to Study Drug Discontinuation: Nausea, subjects","Cohort 3, 200 mg QW",0
same,"GI AE Leading to Study Drug Discontinuation: Vomiting, subjects","Cohort 3, 200 mg QW",0
same,GI AEs Leading to Study Drug Discontinuation: Total subjects discontinued,"Cohort 3, 200 mg QW",3 (7.7%)
same,"Gastrointestinal AE Abdominal discomfort, subjects","Cohort 3, 200 mg QW",1 (2.6%)
same,"Gastrointestinal AE Abdominal distention, subjects","Cohort 3, 200 mg QW",0
same,"Gastrointestinal AE Abdominal pain upper, subjects","Cohort 3, 200 mg QW",1 (2.6%)
same,"Gastrointestinal AE Abdominal pain, subjects","Cohort 3, 200 mg QW",5 (12.8%)
same,"Gastrointestinal AE Constipation, subjects","Cohort 3, 200 mg QW",2 (5.1%)
same,"Gastrointestinal AE Diarrhoea, subjects","Cohort 3, 200 mg QW",13 (33.3%)
same,"Gastrointestinal AE Diverticulum intestinal haemorragic, subjects","Cohort 3, 200 mg QW",1 (2.6%)
same,"Gastrointestinal AE Dyspepsia, subjects","Cohort 3, 200 mg QW",4 (10.3%)
same,"Gastrointestinal AE Dysphagia, subjects","Cohort 3, 200 mg QW",0
same,"Gastrointestinal AE Epigastric discomfort, subjects","Cohort 3, 200 mg QW",0
same,"Gastrointestinal AE Flatulence, subjects","Cohort 3, 200 mg QW",1 (2.6%)
same,"Gastrointestinal AE GERD, subjects","Cohort 3, 200 mg QW",2 (5.1%)
same,"Gastrointestinal AE Gastritis, subjects","Cohort 3, 200 mg QW",0
same,"Gastrointestinal AE Haematochezia, subjects","Cohort 3, 200 mg QW",0
same,"Gastrointestinal AE Haemorroids, subjects","Cohort 3, 200 mg QW",0
same,"Gastrointestinal AE Large intestinal ulcer, subjects","Cohort 3, 200 mg QW",0
same,"Gastrointestinal AE Nausea, subjects","Cohort 3, 200 mg QW",11 (28.2%)
same,"Gastrointestinal AE Odynophagia, subjects","Cohort 3, 200 mg QW",0
same,"Gastrointestinal AE Oesophagitis, subjects","Cohort 3, 200 mg QW",0
same,"Gastrointestinal AE Retching, subjects","Cohort 3, 200 mg QW",0
same,"Gastrointestinal AE Vomiting, subjects","Cohort 3, 200 mg QW",6 (15.4%)
same,"Hepatobiliary clinical AE Cholelithiasis, subjects","Cohort 3, 200 mg QW",0
same,"Hepatobiliary clinical AE Hepatomegaly, subjects","Cohort 3, 200 mg QW",0
same,"Hepatobiliary clinical AE Hyperbilirubinaemia, subjects","Cohort 3, 200 mg QW",3 (7.7%)
same,"Hepatobiliary clinical AE Jaundice, subjects","Cohort 3, 200 mg QW",1 (2.6%)
same,"Hepatobiliary clinical AE Liver injury, subjects","Cohort 3, 200 mg QW",2 (5.1%)
same,"Intensity of Gastrointestinal AEs, Grade 1, subjects","Cohort 3, 200 mg QW",12 (30.8%)
same,"Intensity of Gastrointestinal AEs, Grade 2, subjects","Cohort 3, 200 mg QW",10 (25.6%)
same,"Intensity of Gastrointestinal AEs, Grade 3, subjects","Cohort 3, 200 mg QW",2 (5.1%)
same,"Intensity of Gastrointestinal AEs, Grade 4, subjects","Cohort 3, 200 mg QW",2 (5.1%)
same,"Intensity of Gastrointestinal AEs, Grade 5, subjects","Cohort 3, 200 mg QW",0
same,Proportion of Subjects with Stage 3 or 4 Gut GVHD,"Cohort 3, 200 mg QW",0%
same,"Serum ALT level, Median fold increase from Baseline at Follow-up Week 1","Cohort 3, 200 mg QW",2.52 fold
same,"Serum ALT level, Median fold increase from Baseline at Follow-up Week 4","Cohort 3, 200 mg QW",1.06 fold
same,"Serum ALT level, Peak Median fold increase from Baseline","Cohort 3, 200 mg QW",3.13 fold
same,Subjects completed study,"Cohort 3, 200 mg QW",14 (35.9%) n (%)
same,"TEAE Abdominal pain Grade 2, subjects","Cohort 3, 200 mg QW",1 (2.6%)
same,"TEAE Abdominal pain Grade 3, subjects","Cohort 3, 200 mg QW",1 (2.6%)
same,"TEAE Abdominal pain Grade 4, subjects","Cohort 3, 200 mg QW",0
same,"TEAE Abdominal pain Grade 5, subjects","Cohort 3, 200 mg QW",0
same,"TEAE Abdominal pain Overall Frequency, subjects","Cohort 3, 200 mg QW",5 (12.8%)
same,"TEAE Diarrhea Grade 2, subjects","Cohort 3, 200 mg QW",5 (12.8%)
same,"TEAE Diarrhea Grade 3, subjects","Cohort 3, 200 mg QW",2 (5.1%)
same,"TEAE Diarrhea Grade 4, subjects","Cohort 3, 200 mg QW",0
same,"TEAE Diarrhea Grade 5, subjects","Cohort 3, 200 mg QW",0
same,"TEAE Diarrhea Overall Frequency, subjects","Cohort 3, 200 mg QW",13 (33.3%)
same,"TEAE Hypokalaemia Grade 2, subjects","Cohort 3, 200 mg QW",2 (5.1%)
same,"TEAE Hypokalaemia Grade 3, subjects","Cohort 3, 200 mg QW",0
same,"TEAE Hypokalaemia Grade 4, subjects","Cohort 3, 200 mg QW",0
same,"TEAE Hypokalaemia Grade 5, subjects","Cohort 3, 200 mg QW",0
same,"TEAE Hypokalaemia, subjects","Cohort 3, 200 mg QW",5 (12.8%)
same,"TEAE Nausea Grade 2, subjects","Cohort 3, 200 mg QW",4 (10.3%)
same,"TEAE Nausea Grade 3, subjects","Cohort 3, 200 mg QW",1 (2.6%)
same,"TEAE Nausea Grade 4, subjects","Cohort 3, 200 mg QW",0
same,"TEAE Nausea Grade 5, subjects","Cohort 3, 200 mg QW",0
same,"TEAE Nausea Overall Frequency, subjects","Cohort 3, 200 mg QW",11 (28.2%)
same,"TEAE Vomiting Grade 2, subjects","Cohort 3, 200 mg QW",1 (2.6%)
same,"TEAE Vomiting Grade 3, subjects","Cohort 3, 200 mg QW",1 (2.6%)
same,"TEAE Vomiting Grade 4, subjects","Cohort 3, 200 mg QW",0
same,"TEAE Vomiting Grade 5, subjects","Cohort 3, 200 mg QW",0
